{
  "source": "patent US5250700A",
  "about": "“Phenyl pyrazolidinones as bronchodilators and anti-inflammatory agents” (American Home Products Corporation, priority 1992, dated 1993)",
  "note": "Counter-ions that a name gives are not always drawn.",
  "data": [
    {"system": "PDE IV", "assay": "Inhibition of PDE IV isolated from canine tracheal muscle (cAMP metabolism)", "assay_type": "biochemical", "conditions": "at 10^-5 (concentration unit not given); percentage of the reduction induced by 10 μM rolipram; canine trachealis PDE IV", "procedure": "(§1) The following assay is employed to assess the ability of the compound of the invention to inhibit PDE IV. A solution containing PDE IV is prepared from canine tracheal muscle as follows: The dog is euthanized with an overdose of euthanasia while under anesthesia induced by a 33 mg/kg IV bolus of Nembutal. The trachealis muscle is removed, cleaned of connective tissue, and minced thoroughly. Three to four grams of tissue is then homogenized in Trim-HCl buffer (pH 7.8) using a Polytron. The homogenate is then centrifuged at 25,000×g (4° C.) for 30 minutes. The supernatant is decanted and filtered through four layers of gauze, and applied to a 40 cm×2 cm DEAE-Sepharose column that is equilibrated with Trim-HCl buffer (pH 7.8). The column is then washed with an additional 240 mL of buffer to remove unbound proteins. […] Each fraction is assayed for cAMP- and cGMP- metabolizing PDE activity. Fractions eluting at approximately 0.6 M Na-acetate, and containing CAMP but not CGMP metabolic activity are pooled and used as a PDE stock solution for assaying PDE IV inhibitory activity. […] CI-930 is included as an inhibitor of the cyclic GMP-sensitive, cyclic AMP-selectivePDE (PDE III) that is also present in the PDE IV stock solution when prepared as described above.", "units": {"inhibition of PDE IV (percentage)": "%"}, "values": [
      {"smiles": "COc1ccc(C2CC(=O)NN2C(N)=O)cc1OC1CCCC1", "note": "(centres unmarked) [Example 5, 5-[3-(Cyclopentyloxy)-4-methoxyphenyl]-3-oxo-1-pyrazolidinecarboxamide]", "inhibition of PDE IV (percentage)": 39},
      {"smiles": "COC(=O)N1NC(=O)CC1c1ccc(OC)c(OC2CCCC2)c1", "note": "(centres unmarked) [Example 6, 5-[3-(Cyclopentyloxy)-4-methoxyphenyl]-3-oxo-1-pyrazolidinecarboxylic acid methyl ester]", "inhibition of PDE IV (percentage)": 52},
      {"smiles": "COc1ccc(C2CC(=O)NN2CC(=O)O)cc1OC1CCCC1", "note": "(centres unmarked) [Example 7]", "inhibition of PDE IV (percentage)": 39},
      {"smiles": "COc1ccc(C2CC(=O)N(C(=O)Nc3ccccc3)N2C)cc1OC1CCCC1", "note": "(centres unmarked) [Example 16, 3-[3-(cyclopentyloxy)-4-methoxyphenyl-2-methyl-5-oxo-N-phenyl-1-pyrazolidinecarboxamide hydrochloride]", "inhibition of PDE IV (percentage)": 48}
    ]},
    {"system": "PDE IV", "assay": "Inhibition of PDE IV isolated from canine tracheal muscle (cAMP metabolism)", "assay_type": "biochemical", "conditions": "canine trachealis PDE IV, 1 μM 3H-cAMP, 10 μM CI-930, 30° C., pH 7.8; reduction expressed relative to 10 μM rolipram", "procedure": "as §1", "units": {"IC50": "µM"}, "values": [
      {"smiles": "COc1ccc(C2CC(=O)N(C(=O)N[C@@H](C)c3cccc4ccccc34)N2C)cc1OC1CCCC1", "note": "(single isomer, unassigned) [13 A]", "IC50": 0.012},
      {"smiles": "COc1ccc(C2CC(=O)N(C(=O)N[C@@H](C)c3cccc4ccccc34)N2C)cc1OC1CCCC1", "note": "(single isomer, unassigned) [13 B]", "IC50": 0.018},
      {"smiles": "COc1ccc(C2CC(=O)NN2)cc1OC1CCCC1", "note": "(centres unmarked) [Example 1, 5-[3-(Cyclopentyloxy)-4-methoxyphenyl]-3-pyrazolidinone]", "IC50": 0.34},
      {"smiles": "COc1ccc(C2CC(=O)NN2C)cc1OC1CCCC1", "note": "(centres unmarked) [Example 2, 5-[3--(Cyclopentyloxy)-4-methoxyphenyl]-1-methyl-3-pyrazolidinone]", "IC50": 0.68},
      {"smiles": "COc1ccc(C2CC(=O)N(C)N2C)cc1OC1CCCC1", "note": "(centres unmarked) [Example 3, 5-[3-(Cyclopentyloxy)-4-methoxyphenyl]-1,2-dimethyl-3-pyrazolidinone, hydriodide]", "IC50": 0.82},
      {"smiles": "COC(=O)CN1NC(=O)CC1c1ccc(OC)c(OC2CCCC2)c1", "note": "(centres unmarked) [Example 4, 5-[3-(Cyclopentyloxy)-4-methoxylphenyl]-3-oxo-1-pyrazolidineacetic acid methyl ester]", "IC50": 0.44},
      {"smiles": "CNC(=O)N1C(=O)CC(c2ccc(OC)c(OC3CCCC3)c2)N1C", "note": "(centres unmarked) [Example 9, 3-F3-(Cyclopentyloxy)-4-methoxyphenyl]-2-methyl-5-oxo-N-methyl-1-pyrazolidinecarboxamide, hemihidrate]", "IC50": 0.46},
      {"smiles": "COc1ccc(-c2cc(=O)[nH]n2C)cc1OC1CCCC1", "note": "[Example 10, 5-[3-(cyclopentyloxy)-4-methoxyphenyl]-1,2-dihydro-1-methyl-3H-pyrazol-3-one]", "IC50": 0.31},
      {"smiles": "COc1ccc(-c2cc(=O)n(C(N)=O)n2C)cc1OC1CCCC1", "note": "[Example 11, 3-[3-(cyclopentyloxy)-4-methoxylphenyl]-2.5-dihydro-2-methyl-5-oxo-1H-pyrazole-1-carboxamide]", "IC50": 0.38},
      {"smiles": "COc1ccc(-c2cc(=O)n(C(=O)NCc3ccccn3)n2C)cc1OC1CCCC1", "note": "[Example 12, 3-[3-(cyclopentyloxy)-4-methoxyphenyl]-2.5-dihydro-2-methyl-5-oxo-N-(2-pyridinylmethyl)-1H-pyrazole-1-carboxamide]", "IC50": 0.42},
      {"smiles": "CCCCNC(=O)N1C(=O)CC(c2ccc(OC)c(OC3CCCC3)c2)N1C", "note": "(centres unmarked) [Example 14, N-butyl-3-f3-(cyclopentyloxy)-4-methoxyphenyl]-2-methyl-5-oxo-1-pyrazolidinecarboxamide hydrochloride]", "IC50": 0.26},
      {"smiles": "CCNC(=O)N1C(=O)CC(c2ccc(OC)c(OC3CCCC3)c2)N1C", "note": "(centres unmarked) [Example 15, 3-[3-(cyclopentyloxy)-4-methoxylphenyl]-N-ethyl-2-methyl-5-oxo-1-pyrazolidinecarboxamide hydrochloride, hydrate]", "IC50": 0.049},
      {"smiles": "COc1ccc(C2CC(=O)N(C(=O)NCc3ccccc3)N2C)cc1OC1CCCC1", "note": "(centres unmarked) [Example 17, 3-[3-(cyclopentyloxy)-4-methoxyphenyl]-2-methyl-5-oxo-N-(phenylmethyl)-1-pyrazolidinecarboxamide hydrochloride]", "IC50": 0.036},
      {"smiles": "COc1ccc(C2CC(=O)N(C(=O)NC3CCCCC3)N2C)cc1OC1CCCC1", "note": "(centres unmarked) [Example 18, N-cyclohexyl-3-[3-(cyclopentyloxy)-4-methoxyphenyl]-2-methyl-5-oxo-1-pyrazolidine carboxamide hydrochloride]", "IC50": 0.1},
      {"smiles": "COc1ccc(NC(=O)N2C(=O)CC(c3ccc(OC)c(OC4CCCC4)c3)N2C)cc1", "note": "(centres unmarked) [Example 19, 3-[3-(cyclopentyloxy)-4-methoxyphenyl]-N-(4-methoxyphenyl)-2-methyl-5-oxo-1-pyrazolidinecarboxamide]", "IC50": 0.12},
      {"smiles": "COc1ccc(C2CC(=O)N(C(=S)NCc3ccc(F)cc3)N2C)cc1OC1CCCC1", "note": "(centres unmarked) [Example 20, 3-[3-(cyclopentyloxy)-4-methoxyphenyl]-N-[(4-fluorophenyl)-methyl]-2-methyl-5-oxo-1-pyrazolidinecarbothioamide]", "IC50": 0.065},
      {"smiles": "COc1ccc(CNC(=S)N2C(=O)CC(c3ccc(OC)c(OC4CCCC4)c3)N2C)cc1", "note": "(centres unmarked) [Example 21, 3-[3-(cyclopentyloxy)-4-methoxyphenyl]-N-[(4-methoxyphenyl)methyl]-2-methyl-5-oxo-1-pyrazolidinecarbothioamide]", "IC50": 0.053},
      {"smiles": "COc1ccc(C2CC(=O)N(C(=O)Nc3ccc(F)cc3)N2C)cc1OC1CCCC1", "note": "(centres unmarked) [Example 22]", "IC50": 0.21},
      {"smiles": "COc1ccc(C2CC(=O)N(C(N)=O)N2Cc2ccccc2)cc1OC1CCCC1", "note": "(centres unmarked) [Example 23]", "IC50": 0.32},
      {"smiles": "COc1ccc(C2CC(=O)N(C(=O)NCc3cccnc3)N2C)cc1OC1CCCC1", "note": "(centres unmarked) [Example 24, 3-[3-(cyclopentyloxy)-4-methoxyphenyl]-2-methyl-5-oxo-N-(3-pyridinylmethyl)-1-pyrazolidine carboxamide]", "IC50": 0.085},
      {"smiles": "COc1ccc(C2CC(=O)N(Cc3cccnc3)N2C)cc1OC1CCCC1", "note": "(centres unmarked) [Example 25, 5-[3-(cyclopentyloxy)-4-methoxyphenyl]-1-methyl-2-(3-pyridinylmethyl)-3-pyrazolidinone hydrochloride dehydrate]", "IC50": 1.5},
      {"smiles": "CCCCCCCN1C(=O)CC(c2ccc(OC)c(OC3CCCC3)c2)N1C", "note": "(centres unmarked) [Example 26, 5-[3-(cyclopentyloxy)-4-methoxyphenyl-2-heptyl-1-methyl-3-pirazolidinone hydrochloride]", "IC50": 0.17},
      {"smiles": "COc1ccc(C2CC(=O)N(Cc3cncc(Br)c3)N2C)cc1OC1CCCC1", "note": "(centres unmarked) [Example 27, 2-[(5-bromo-3-pyridinyl)methyl]-5-[3-(cyclopentyloxy)-4-methoxyphenyl]-1-methyl-3-pyrazolidinone hydrochloride]", "IC50": 0.94},
      {"smiles": "COc1ccc(C2CC(=O)N(C(=O)c3cncc(Br)c3)N2C)cc1OC1CCCC1", "note": "(centres unmarked) [Example 28, 5-[3-(cyclopentyloxy)-4-methoxyphenyl]-1-methyl-2-(5-bromo-3-pyridinylcarbonyl)-3-pyrazolidinone]", "IC50": 0.35},
      {"smiles": "COc1ccc(C2CC(=O)N(CCCc3cccnc3)N2C)cc1OC1CCCC1", "note": "(centres unmarked) [Example 29, 5-[3(cyclopentyloxy)-4-methoxyphenyl]-1-methyl-2-[3-(3-pyridinyl)propyl]-3-pyrazolidinone quarter dichloromethane]", "IC50": 0.16},
      {"smiles": "COc1ccc(C2CC(=O)N(C/C=C/c3cncc(Br)c3)N2C)cc1OC1CCCC1", "note": "(centres unmarked) [Example 30, 2-[(E)-3-(5-bromo-3-pyridinyl)-2-propenyl]-5-[3-(cyclopentyloxy)-4-methoxyphenyl]-1-methyl-3-pyrazolidinone hemi(dichloromethane)]", "IC50": 0.05},
      {"smiles": "COc1ccc(C2CC(=O)N(C(C)=O)N2C)cc1OC1CCCC1", "note": "(centres unmarked) [Example 31, 2-acetyl-5-[3-(cyclopentyloxy)-4-methoxyphentyl]-1-methyl-3-pyrazolidinone hydrochloride]", "IC50": 0.98},
      {"smiles": "COc1ccc(C2CC(=O)N(C(=O)c3cccnc3)N2C)cc1OC1CCCC1", "note": "(centres unmarked) [Example 32, 5-[3-(cyclolpentyloxy)-4-methoxyphenyl]-1-methyl-2-(3-pyridinylcarbonyl)-3-pirazolidinone hemihydrate]", "IC50": 0.34},
      {"smiles": "COc1ccc(C2CC(=O)N(C(=O)/C=C/c3cncc(Br)c3)N2C)cc1OC1CCCC1", "note": "(centres unmarked) [Example 33]", "IC50": 0.081},
      {"smiles": "COc1ccc(C2CC(=O)NN2Cc2ccccc2)cc1OC1CCCC1", "note": "(centres unmarked) [Example 34, 5-[3-(cyclopentyloxy)-4-methoxyphenyl]-1-(phenylmethyl)-3-pyrazolidinone]", "IC50": 0.058},
      {"smiles": "CCN1NC(=O)CC1c1ccc(OC)c(OC2CCCC2)c1", "note": "(centres unmarked) [Example 35, 5-[3-(cyclopentyloxy)-4-methoxyphenyl]-1-ethyl-3-pyrazolidinone]", "IC50": 4.1},
      {"smiles": "CCN(CC)CCNC(=O)N1C(=O)CC(c2ccc(OC)c(OC3CCCC3)c2)N1C", "note": "(centres unmarked) [Example 36, 3-(3-Cyclopentyloxy-4-methoxyphenyl)-2-methyl-5-oxo-pyrazolidine-1-carboxylic acid 2-(diethyl-amino) ethylamide]", "IC50": 5.6},
      {"smiles": "COc1ccc(C2CC(=O)N(C(=O)NN3CCOCC3)N2C)cc1OC1CCCC1", "note": "(centres unmarked) [Example 37, 3-(3-Cyclolpentyloxy-4-methoxyphenyl)-2-methyl-5-oxo-pyrazolidine-1-carboxylic acid morilholin-4-ylamide]", "IC50": 3.2},
      {"smiles": "COc1ccc(C2CC(=O)N(C(=O)NCCCN3CCCC3=O)N2C)cc1OC1CCCC1", "note": "(centres unmarked) [Example 38, 3-(3-Cyclopentyloxy-4-methoxyphenyl)-2-methyl-5-oxo-pyrazolidine-1-carboxylic acid 3-(2-oxo-pyrrolidin-1-yl) propylamide]", "IC50": 0.56}
    ]}
  ]
}
